Measurements reported in patent US20210023065A1, “AMPHIPHILIC THIOL COMPOUNDS AND USES THEREOF” (THE REGENTS OF THE UNIVERSITY OF CALIFORNIA, priority 2018, published 2021).

Tests used:
[1] = AMD model reaction with S-palmitoyl MESNA (HPLC/ELSD/MS); settings: 5 mM each reactant, NaH2PO4 buffer 200 mM pH 7.1, 10 mM TCEP, 25° C.
Description: The reaction was stirred at 25° C. and aliquots taken at the specified time points and subjected to HPLC/ELSD/MS analysis (Eclipse Plus C8 analytical column, 50-95% MeOH in H2O with 0.1% TFA, 0-7 min; 95% MeOH in H2O with 0.1% TFA, 7 min-end).

EGFP-KRas4b = experiment: Live-cell imaging of EGFP-KRas4b localization in HeLa cells; type: cell-based; settings: 1.25 μmol/10^7 cells
Description: Imaging was performed on an Axio Observer Z1 inverted microscope (Carl Zeiss Microscopy Gmb, Germany) with Yokogawa CSU-X1 spinning disk confocal unit using a 63×, 1.4 NA oil immersion or 20×, 0.8 NA objective to an ORCA-Flash4.0 V2 Digital CMOS camera (Hamamatsu, Japan). For live cell imaging, an incubation chamber with temperature and CO2 controllers (World Precision Instruments) was utilized. Fluorophores were excited with s diode laser (488 nm; 30 mW). Images were acquired using Zen Blue software (Carl Zeiss) and processed using Image J.^1 HeLa cells were plated at 40,000 cells/well in an 8-well Lab-Tek chamber slide (ThermoFisher) and allowed to adhere overnight. Cells were transfected with mEGFP-HRas or mEGFP-KRas4b using Lipofectamine 2000 (ThermoFisher) according to the manufacturer's protocol. 50 mM stocks of compounds 1 and 2 were prepared by dissolving the solid compound in DMSO containing 100 mM tris(2-S 3 carboxyethyl)phosphine hydrochloride (TCEP) as a preservative. From these stocks, a solution of 200 μM [1 or 2] (with 400 μM TCEP), or 400 μM TCEP was prepared in OptiMEM media. Before imaging, cells were exchanged into OptiMEM media. The diluted solutions were added to the indicated final concentration within individual wells of the chamber slide and cells imaged while maintaining 37° C., 5% CO2 in the incubation chamber. […]

ERK1/2 (pY204/pY187) = experiment: Detection of ERK1/2 phosphorylation in HeLa cells (western blot); type: cell-based; settings: 1.25 μmol/10^7 cells, 20 min, then EGF 5 min
Description: HeLa cells were grown to confluency in 6 cm plates and then serum starved overnight in OptiMEM. Stock solutions of compounds were prepared in DMSO as before and diluted to the final indicated concentration in 2 mL of OptiMEM media before adding to cells. Cells were incubated at 37° C. for 20 min and then stimulated with […] EGF (ThermoFisher) for 5 min. Media was then removed and cells washed once with HBSS. 1.5 mL of HBSS was then added to each plate. Cells were detached using a cell scraper, pelleted by centrifugation at 1,000 rcf for 5 min and the pellet processed using MPER™ Mammalian Protein Extraction Reagent (ThermoFisher) with the addition of Halt Protease Inhibitor Cocktail (ThermoFisher) and 1 mM sodium orthovanadate. Samples were resolved by electrophoresis using 4-20% SDS-polyacrylamide gels (Bio-Rad) under denaturing and reducing conditions. Proteins were then electrotransferred to a PVDF membrane (Bio-Rad). The membrane was blocked with 3% BSA and then subjected to immunoblot analysis using AKT/MAPK Signaling Pathway Antibody Cocktail (ab151279) (Abcam) and secondary goat anti-rabbit IgG-HRP (sc-2030) (Santa Cruz Biotechnology). […]
Assays were performed in 3 biological replicates. Western blots were analyzed using ImageJl. […]

## CCCCCCCCNC(=O)[C@@H](N)CS [compound 1, H2N-L-Cys-Oct]
[1]
  reaction with MESNA thiopalmitate 3 (cleavage of model S-palmitoyl group, ligation product 4): proceeded rapidly and irreversibly
EGFP-KRas4b
  EGFP-KRas4b protein localization (fluorescence): no change in protein localization
ERK1/2 (pY204/pY187)
  ERK1/2 phosphorylation after EGF stimulation: but not ERK1/2 phosphorylation
